The values below come from paper PMC6597265 (ACS chemical neuroscience, 2019).

Molecules are shown by their SMILES. Read-outs that look alike come from different tables or passages of the source.

For test [1], the target named is native KA receptors. The settings on record: cited from earlier work.
Test [2] has as its target native NMDA receptors. Particulars: read-out: Ki NMDA, cited from earlier work.
In test [3] the target is native AMPA receptors. The settings on record: read-out: IC50 AMPA, cited from earlier work.
Another test deals with T1, human EAAT3 (Homo sapiens, UniProt P43005).
T1 sequence (P43005 1-524): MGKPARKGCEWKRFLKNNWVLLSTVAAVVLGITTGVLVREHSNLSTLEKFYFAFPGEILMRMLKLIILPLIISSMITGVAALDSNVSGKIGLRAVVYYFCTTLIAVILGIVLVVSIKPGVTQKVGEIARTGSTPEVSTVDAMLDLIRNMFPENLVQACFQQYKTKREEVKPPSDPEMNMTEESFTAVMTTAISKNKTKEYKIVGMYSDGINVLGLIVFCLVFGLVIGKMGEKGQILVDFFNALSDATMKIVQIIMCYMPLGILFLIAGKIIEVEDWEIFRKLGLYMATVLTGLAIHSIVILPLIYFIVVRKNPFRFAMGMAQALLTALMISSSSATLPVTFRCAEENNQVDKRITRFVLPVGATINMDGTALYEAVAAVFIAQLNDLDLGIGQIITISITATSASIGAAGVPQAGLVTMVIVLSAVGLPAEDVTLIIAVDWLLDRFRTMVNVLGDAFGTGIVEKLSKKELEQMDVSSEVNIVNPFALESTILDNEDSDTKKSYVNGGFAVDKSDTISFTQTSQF
Nature of the test: [3H]-D-Asp uptake assay, EAAT3 stably expressed in HEK293 cells. It is filed as cell-based.

A further test addresses human EAAT1 (Homo sapiens, UniProt P43003). Kind of test: [3H]-D-Asp uptake assay, EAAT1 stably expressed in HEK293 cells. It is filed as cell-based.
In test [4] the target is recombinant rat homomeric GluK3 (Rattus norvegicus, UniProt P42264). Nature of the test: Binding affinity at cloned homomeric GluK3 expressed in sf9 cells, [3H]-KA. The settings on record: for GluK1/K3 (GluK1/GluK3 Ki selectivity ratio): ratio of Ki values at cloned homomeric receptors.
recombinant rat homomeric GluK3, sequence (P42264 32-919): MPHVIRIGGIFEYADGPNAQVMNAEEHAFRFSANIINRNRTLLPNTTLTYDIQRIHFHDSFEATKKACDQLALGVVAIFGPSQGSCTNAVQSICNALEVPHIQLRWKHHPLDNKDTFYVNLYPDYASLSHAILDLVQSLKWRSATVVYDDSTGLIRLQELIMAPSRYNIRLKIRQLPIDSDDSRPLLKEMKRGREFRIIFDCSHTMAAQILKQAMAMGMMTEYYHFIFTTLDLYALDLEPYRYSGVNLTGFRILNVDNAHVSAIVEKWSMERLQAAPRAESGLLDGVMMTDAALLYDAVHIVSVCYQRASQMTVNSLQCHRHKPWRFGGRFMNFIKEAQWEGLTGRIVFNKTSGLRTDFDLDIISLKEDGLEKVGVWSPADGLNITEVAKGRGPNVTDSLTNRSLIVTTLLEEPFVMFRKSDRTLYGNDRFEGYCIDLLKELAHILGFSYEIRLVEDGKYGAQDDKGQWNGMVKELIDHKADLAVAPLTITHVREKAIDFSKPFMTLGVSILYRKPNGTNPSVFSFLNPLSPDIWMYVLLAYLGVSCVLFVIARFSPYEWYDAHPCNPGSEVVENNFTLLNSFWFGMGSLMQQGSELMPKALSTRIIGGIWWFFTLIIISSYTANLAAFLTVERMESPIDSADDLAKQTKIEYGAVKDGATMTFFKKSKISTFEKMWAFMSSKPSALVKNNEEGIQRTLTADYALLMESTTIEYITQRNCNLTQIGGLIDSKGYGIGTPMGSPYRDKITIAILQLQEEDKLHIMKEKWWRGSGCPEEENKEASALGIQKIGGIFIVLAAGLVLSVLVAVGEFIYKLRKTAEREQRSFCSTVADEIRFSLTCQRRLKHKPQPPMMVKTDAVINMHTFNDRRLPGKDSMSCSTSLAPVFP
The target of the next test is human EAAT2 (Homo sapiens, UniProt P43004). Nature of the test: [3H]-D-Asp uptake assay, EAAT2 stably expressed in HEK293 cells. Format: cell-based.
human EAAT2, sequence (P43004 whole entry): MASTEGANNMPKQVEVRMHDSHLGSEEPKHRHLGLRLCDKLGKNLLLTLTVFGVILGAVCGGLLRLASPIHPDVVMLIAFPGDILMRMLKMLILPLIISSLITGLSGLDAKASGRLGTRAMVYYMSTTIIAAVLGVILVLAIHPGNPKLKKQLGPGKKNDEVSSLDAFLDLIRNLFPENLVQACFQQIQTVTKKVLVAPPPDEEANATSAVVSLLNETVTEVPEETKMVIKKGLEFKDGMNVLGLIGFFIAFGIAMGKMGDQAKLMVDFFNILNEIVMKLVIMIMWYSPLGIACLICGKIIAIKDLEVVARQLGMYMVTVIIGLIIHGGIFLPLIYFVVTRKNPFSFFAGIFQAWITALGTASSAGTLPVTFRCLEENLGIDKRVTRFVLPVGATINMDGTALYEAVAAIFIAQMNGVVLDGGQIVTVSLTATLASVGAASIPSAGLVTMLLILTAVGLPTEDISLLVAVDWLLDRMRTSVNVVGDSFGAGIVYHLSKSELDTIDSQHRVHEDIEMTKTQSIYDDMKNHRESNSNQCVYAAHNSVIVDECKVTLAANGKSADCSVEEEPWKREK
For test [5], the target named is native KA receptors. Kind of test: Binding affinity at native KA receptors, [3H]-KA, rat cortical synaptosomes. The settings on record: native iGluRs, mean of at least three experiments.
Test [6] concerns the target native NMDA receptors. Format: binding. The settings on record: native iGluRs, rat synaptosomes.
Test [7] has as its target recombinant rat homomeric GluK1 (Rattus norvegicus, UniProt P22756). Nature of the test: Binding affinity at cloned homomeric GluK1 expressed in sf9 cells, [3H]-NF608.
The target of test [8] is native AMPA receptors. Kind of test: Binding affinity at native AMPA receptors, [3H]-AMPA, rat cortical synaptosomes. Particulars: native iGluRs.
Test [9] has as its target recombinant rat homomeric GluK2 (Rattus norvegicus, UniProt P42260). Kind of test: Binding affinity at cloned homomeric GluK2 expressed in sf9 cells, [3H]-KA.
The target of another test is GluN1/GluN2C (Rattus norvegicus, UniProt P35439+Q00961). Format: cell-based.
GluN1/GluN2C, sequence (Q00961 20-1237, other chains not shown): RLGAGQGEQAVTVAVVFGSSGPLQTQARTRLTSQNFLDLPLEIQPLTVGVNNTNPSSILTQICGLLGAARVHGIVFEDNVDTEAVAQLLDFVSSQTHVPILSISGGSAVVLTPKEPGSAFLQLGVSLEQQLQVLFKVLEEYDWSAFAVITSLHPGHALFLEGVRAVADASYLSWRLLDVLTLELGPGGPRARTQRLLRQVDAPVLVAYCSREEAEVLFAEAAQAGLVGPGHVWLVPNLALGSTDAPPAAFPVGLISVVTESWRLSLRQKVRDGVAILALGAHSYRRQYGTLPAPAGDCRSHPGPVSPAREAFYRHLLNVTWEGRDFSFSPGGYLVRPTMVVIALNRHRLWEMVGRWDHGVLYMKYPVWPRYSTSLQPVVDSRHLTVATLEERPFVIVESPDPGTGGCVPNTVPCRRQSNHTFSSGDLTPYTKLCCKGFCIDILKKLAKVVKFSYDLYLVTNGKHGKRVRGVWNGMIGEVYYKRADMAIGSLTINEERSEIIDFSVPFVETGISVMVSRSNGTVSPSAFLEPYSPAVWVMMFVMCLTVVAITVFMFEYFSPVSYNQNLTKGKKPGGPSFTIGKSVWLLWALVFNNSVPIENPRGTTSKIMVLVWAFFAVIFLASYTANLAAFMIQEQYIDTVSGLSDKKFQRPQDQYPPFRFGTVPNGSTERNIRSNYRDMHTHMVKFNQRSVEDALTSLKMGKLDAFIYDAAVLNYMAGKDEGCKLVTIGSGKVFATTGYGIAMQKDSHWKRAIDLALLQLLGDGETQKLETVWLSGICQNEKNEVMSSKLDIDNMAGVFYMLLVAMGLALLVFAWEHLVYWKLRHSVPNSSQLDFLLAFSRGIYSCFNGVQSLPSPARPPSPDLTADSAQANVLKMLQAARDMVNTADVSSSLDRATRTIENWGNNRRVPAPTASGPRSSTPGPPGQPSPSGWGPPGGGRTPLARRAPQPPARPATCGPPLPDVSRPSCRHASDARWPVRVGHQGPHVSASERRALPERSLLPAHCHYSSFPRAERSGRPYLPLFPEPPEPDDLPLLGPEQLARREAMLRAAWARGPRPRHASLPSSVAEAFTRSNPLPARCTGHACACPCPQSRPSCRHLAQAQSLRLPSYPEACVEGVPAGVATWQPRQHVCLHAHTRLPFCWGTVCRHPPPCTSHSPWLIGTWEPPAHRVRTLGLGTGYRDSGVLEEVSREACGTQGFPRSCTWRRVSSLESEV
In test [10] the target is GluN1/GluN2A (Rattus norvegicus, UniProt Q00959). It is filed as cell-based. Particulars: from Ki values.
Test [11] addresses GluN1/GluN2A (Rattus norvegicus, UniProt P35439+Q00959). Format: cell-based.
A further test has as its target GluN1/GluN2D (Rattus norvegicus, UniProt P35439+Q62645). It is filed as cell-based.
A further test deals with GluN1/GluN2B (Rattus norvegicus, UniProt P35439+Q00960). Format: cell-based.
GluN1/GluN2B, sequence (Q00960 27-1482, other chains not shown): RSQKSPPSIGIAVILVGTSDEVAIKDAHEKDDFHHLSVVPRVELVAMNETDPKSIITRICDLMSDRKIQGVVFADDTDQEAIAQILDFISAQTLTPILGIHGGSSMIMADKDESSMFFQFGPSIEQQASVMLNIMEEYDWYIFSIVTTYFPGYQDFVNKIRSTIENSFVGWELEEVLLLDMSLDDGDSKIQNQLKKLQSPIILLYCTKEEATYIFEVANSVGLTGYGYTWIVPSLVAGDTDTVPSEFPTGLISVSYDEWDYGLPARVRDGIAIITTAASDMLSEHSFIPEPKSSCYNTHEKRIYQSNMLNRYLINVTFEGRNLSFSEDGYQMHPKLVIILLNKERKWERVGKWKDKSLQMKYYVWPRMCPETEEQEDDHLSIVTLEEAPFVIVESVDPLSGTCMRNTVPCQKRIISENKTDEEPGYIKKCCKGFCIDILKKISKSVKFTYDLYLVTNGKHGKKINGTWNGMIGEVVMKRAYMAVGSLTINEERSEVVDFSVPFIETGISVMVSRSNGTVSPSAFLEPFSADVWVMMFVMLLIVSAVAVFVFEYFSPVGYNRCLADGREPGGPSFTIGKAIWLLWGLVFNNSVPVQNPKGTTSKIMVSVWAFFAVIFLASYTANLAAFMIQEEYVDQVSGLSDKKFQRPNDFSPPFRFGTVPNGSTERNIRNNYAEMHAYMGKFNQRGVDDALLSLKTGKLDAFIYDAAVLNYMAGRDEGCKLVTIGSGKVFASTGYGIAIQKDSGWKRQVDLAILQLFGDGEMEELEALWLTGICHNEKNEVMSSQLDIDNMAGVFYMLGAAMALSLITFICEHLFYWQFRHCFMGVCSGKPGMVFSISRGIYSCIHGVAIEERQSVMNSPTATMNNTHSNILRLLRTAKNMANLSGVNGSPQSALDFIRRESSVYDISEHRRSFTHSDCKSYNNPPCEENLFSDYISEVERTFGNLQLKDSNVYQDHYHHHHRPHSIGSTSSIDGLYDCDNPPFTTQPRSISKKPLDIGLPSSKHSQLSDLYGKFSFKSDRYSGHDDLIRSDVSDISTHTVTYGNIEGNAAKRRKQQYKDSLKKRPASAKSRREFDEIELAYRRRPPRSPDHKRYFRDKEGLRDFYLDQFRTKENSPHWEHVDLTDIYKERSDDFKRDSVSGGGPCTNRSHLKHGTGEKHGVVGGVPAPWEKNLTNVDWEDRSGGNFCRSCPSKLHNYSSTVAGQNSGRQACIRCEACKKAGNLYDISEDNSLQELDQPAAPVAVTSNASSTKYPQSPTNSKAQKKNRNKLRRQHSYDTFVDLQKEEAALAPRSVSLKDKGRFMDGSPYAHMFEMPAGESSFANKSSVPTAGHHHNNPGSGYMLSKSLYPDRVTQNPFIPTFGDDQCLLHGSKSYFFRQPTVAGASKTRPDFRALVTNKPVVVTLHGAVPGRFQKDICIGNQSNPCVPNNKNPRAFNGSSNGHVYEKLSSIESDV

human EAAT1, sequence (P43003 whole entry): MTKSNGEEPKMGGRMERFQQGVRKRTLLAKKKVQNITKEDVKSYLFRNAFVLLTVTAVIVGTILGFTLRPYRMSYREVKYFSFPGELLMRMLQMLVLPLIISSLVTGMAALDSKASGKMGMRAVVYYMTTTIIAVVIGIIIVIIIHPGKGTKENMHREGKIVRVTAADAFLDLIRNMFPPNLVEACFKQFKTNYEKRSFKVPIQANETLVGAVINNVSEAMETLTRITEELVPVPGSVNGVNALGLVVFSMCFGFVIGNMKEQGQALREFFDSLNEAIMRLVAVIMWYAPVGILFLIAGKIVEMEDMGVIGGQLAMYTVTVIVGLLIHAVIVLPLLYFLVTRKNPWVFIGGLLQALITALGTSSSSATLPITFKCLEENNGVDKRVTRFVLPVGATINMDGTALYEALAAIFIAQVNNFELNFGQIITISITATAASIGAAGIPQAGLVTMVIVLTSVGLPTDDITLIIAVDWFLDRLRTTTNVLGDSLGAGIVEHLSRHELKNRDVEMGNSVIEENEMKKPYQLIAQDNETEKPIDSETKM

Usually Ki stands for the dissociation constant of the complex between target and ligand, obtained from inhibition or displacement. The term IC50 denotes the concentration that gives 50% inhibition. Regarding `CN[C@H](CC(=O)O)C(=O)O` [NMDA, N-methyl-D-aspartate, reference compound], on native KA receptors [1], the “IC50 KA” value is over 100 µM. The Ki at native NMDA receptors [2] is 35 µM. The IC50 at native AMPA receptors [3] was over 100 µM.
On to `Cl.O=C(O)C[C@H]1CCN[C@@H]1C(=O)O` [3a, (2S,3R)-3-(Carboxymethyl)pyrrolidine-2-carboxylic Acid Hydrochloride], for which the IC50 on human EAAT3 (read-out: IC50 EAAT3, HEK293 cells, [3H]-D-Asp uptake) is over 300 µM; at human EAAT1 (read-out: IC50 EAAT1, HEK293 cells, [3H]-D-Asp uptake) it was over 300 µM; at native AMPA receptors [3] (native receptors, ref [67]), 106 µM; on human EAAT2 (read-out: IC50 EAAT2, HEK293 cells, [3H]-D-Asp uptake) it was over 300 µM. For the same molecule, the “IC50 KA” value at native KA receptors [1] (native receptors, ref [67]) was 1.6 µM. For the same molecule, the “GluK1/K3 (GluK1/GluK3 Ki selectivity ratio)” value in [4] stood at 6. At native NMDA receptors [2] (native receptors, ref [67]), the Ki was 0.5 µM.
For `Cl.Cl.NC(C(=O)O)[C@@H]1CCN[C@H]1C(=O)O` (relative stereo) [3k, trans-3-(Amino(carboxy)methyl)pyrrolidine-2-carboxylic Acid Dihydrochloride], the IC50 at human EAAT3, against human EAAT1 and at human EAAT2 was over 300 µM in each case. The “IC50 KA” value at native KA receptors [5] was over 100 µM. Moreover, the “pKi NMDA (mean ± SEM, in brackets)” value at native NMDA receptors [6] was 5.06 ± 0.02. In addition, the Ki was over 100 µM in test [7], 33 ± 2.4 µM in test [4] and over 100 µM in test [9]. The “GluK1/K3 (GluK1/GluK3 Ki selectivity ratio)” value in [4] is listed as over 3. The “pIC50 AMPA (mean ± SEM, in brackets)” value at native AMPA receptors [8] came to 4.51 ± 0.03.
Regarding `Cl.O=C(O)C(Cc1nnn[nH]1)[C@@H]1CCN[C@H]1C(=O)O` (relative stereo) [3q-s3,4, trans-3-(1-Carboxy-2-(1H-tetrazol-5-yl)ethyl)pyrrolidine-2-carboxylic Acid Hydrochloride], the “pKi NMDA (mean ± SEM, in brackets)” value at native NMDA receptors [6] was 6.61 ± 0.07. Moreover, the Ki at GluN1/GluN2C was 12 ± 1 µM; on GluN1/GluN2A [11], 0.61 ± 0.02 µM; at GluN1/GluN2D, 62 ± 9 µM; on GluN1/GluN2B, 2.7 ± 0.1 µM. The “fold preference as antagonist for GluN1/GluN2A over GluN1/GluN2B-D” value on GluN1/GluN2A [10] is 4.4−100 fold.
